In patent US20250025438A1, “Derivative of aspartic acid and use thereof in treatment of metabolic diseases such as hepatic fibrosis and non-alcoholic hepatitis” (SHENZHEN JINGTAI TECHNOLOGY CO., LTD., priority 2021, published 2025):

How the values were obtained:
Type in all cases: cell-based
COL1A1 = experiment: In vitro efficacy in semi-activated LX2 cells, qPCR: COL1A1; settings: Homo sapiens, LX-2, 50 µM, 48 hours, Q-PCR, read-out: COL1A1 mRNA inhibition rate
Procedure: (§1) Test compounds were added to the LX-2 cells respectively, and total RNA in the cells was extracted 48 hours later. This experiment was performed strictly in accordance with the instructions of the Total RNA Kit. The steps were as follows (note: this experiment was performed on ice throughout the entire process, and special RNase-free tips were used throughout the entire process): • 1) The 12-well cell culture plate was taken out from the incubator, the cell culture medium was discarded, the cells were washed twice with 1 mL of 1×PBS, and a negative pressure suction device was used to fully remove PBS; • 2) 350 μL of TRK Lysis Buffer mixture/well was prepared as needed (mixture preparation method: 1 mL of TRKLysis Buffer+20 μL of β-mercaptoethanol), vortexed and mixed well. 350 μL was added to each well of the 12-well cell culture plate, and allowed to stand at room temperature for 5 minutes to fully lyse the cells; • 3) 70% ethanol/well was prepared as needed, vortexed and mixed well. 350 μL was added to each well of the 12-well cell culture plate, mixed well by shaking, and transferred to the spin column (spin column+collection tube were assembled); • 4) Centrifugation was performed at 4° C., 12000 g for 60 sec. The waste liquid was discarded after centrifugation, while the spin column was kept; • 5) 500 μL of RNA Wash Buffer I was added, centrifuged at 4° C., 12000 g for 60 sec, the waste liquid was discarded after centrifugation, and the collection column was kept; • 6) 500 μL of RNA Wash Buffer II (confirmed that ethanol had been added) was added, centrifuged at 4° C., 12000 g for 60 sec, the waste liquid was discarded after centrifugation, and the collection column was kept; • 7) step 6) was repeated once again, centrifugation was performed at 4° C., 12000 g for 90 sec, the waste liquid was discarded after centrifugation, and the collection column was kept; • 8) Centrifugation was performed at 4° C., 12000 g for 120 sec to ensure that the spin column was fully dried; • 9) The dried spin column was inserted into a new 1.5 mL EP tube, and 30 μL of DEPC water was added to the membrane in the center of the spin column. It should be careful not to touch the EP tube cover in this step. It was allowed to stand at room temperature for 5 minutes to ensure that the RNA was fully dissolved in DEPC water. Centrifugation was performed at 4° C., 12000 g for 60 sec, and the EP tube was kept; • 10) NanoDrop ultra-micro-volume spectrophotometer was used to detect RNA concentration;
(§2) 5.2 Reverse transcription of RNA into cDNA: According to the instructions of PrimeScript™ RT reagent Kit (Perfect Real Time), the specific experimental steps were as follows:
(§3) 5.3 Q-PCR detection of target gene expression: According to the instructions of Power SYBR® Green PCR Master Mix, the specific operations were as follows:
(§4) After the reaction was completed, the amplification curve and dissolution curve of Q-PCR were confirmed, and the relative quantification method ([…]) was used to perform data analysis on the experimental results.
(§5) LX2 cells were passaged and plated normally. […] After 48 hours, the cells were collected, total RNA was extracted, and Q-PCR was used to detect the changes in the mRNA expression levels of liver fibrosis-related genes (ACTA2 encoding α-SMA, COL1A1 and COLIA2 encoding collagen I, COL3A1 encoding collagen III, SMAD3 encoding Smad3) and inflammation-related genes (IL1β encoding IL-1β, TNFα encoding TNFα) (for specific methods, see 5. Q-PCR detection of target gene expression as described above). α-SMA was a marker of hepatic stellate cell activation, and collagen I and collagen III were the main components of extracellular matrix deposition.

TNF-α = experiment: In vitro efficacy in semi-activated LX2 cells, qPCR: TNF-α; settings: Homo sapiens, LX-2, 48 hours, Q-PCR, read-out: TNF-α mRNA inhibition rate
Procedure: as §1, §2, §3, §4
(§6) LX2 cells were passaged and plated normally. After adherent growth for 12 hours, 50 µM of the test compound was added. After 48 hours, the cells were collected, total RNA was extracted, and Q-PCR was used to detect the changes in the mRNA expression levels of liver fibrosis-related genes (ACTA2 encoding α-SMA, COL1A1 and COLIA2 encoding collagen I, COL3A1 encoding collagen III, SMAD3 encoding Smad3) and inflammation-related genes (IL1β encoding IL-1β, TNFα encoding TNFα) (for specific methods, see 5. Q-PCR detection of target gene expression as described above). α-SMA was a marker of hepatic stellate cell activation, and collagen I and collagen III were the main components of extracellular matrix deposition.

α-SMA = experiment: In vitro efficacy in semi-activated LX2 cells, qPCR: α-SMA; settings: 50 µM, 48 hours, Q-PCR, read-out: α-SMA mRNA inhibition rate
Procedure: as §1, §2, §3, §4, §5

Smad3 = experiment: In vitro efficacy in semi-activated LX2 cells, qPCR: Smad3; settings: 48 hours, Q-PCR; for inhibition of the expression of Smad3 at the mRNA level: Table 2; for inhibition at 50 µM: Homo sapiens, LX-2, 50 µM, read-out: Smad3 mRNA inhibition rate
Procedure: as §1, §2, §3, §4, §5

COL3A1 = experiment: In vitro efficacy in semi-activated LX2 cells, qPCR: COL3A1; settings: Homo sapiens, LX-2, 50 µM, 48 hours, Q-PCR, read-out: COL3A1 mRNA inhibition rate
Procedure: as §1, §2, §3, §4, §5

IL-1β = experiment: In vitro efficacy in semi-activated LX2 cells, qPCR: IL-1β; settings: Homo sapiens, LX-2, 50 µM, 48 hours, Q-PCR, read-out: IL-1β mRNA inhibition rate
Procedure: as §1, §2, §3, §4, §5

[1] = tested on: collagen I and collagen III; experiment: Semi-activated LX2 cells, qPCR: collagen I and collagen III at the mRNA level; settings: 48 hours, Q-PCR, Table 2
Procedure: as §1, §3
as §6, with “deposition. […]” for “deposition.”

COL1A2 = experiment: In vitro efficacy in semi-activated LX2 cells, qPCR: COL1A2; settings: Homo sapiens, LX-2, 48 hours, Q-PCR, read-out: COL1A2 mRNA inhibition rate
Procedure: as §1, §2, §3, §4, §6

| Structure (SMILES) | inhibition at 50 µM (COL1A1) [%] | inhibition at 50 µM (TNF-α) [%] | inhibition at 50 µM (α-SMA) [%] | inhibition of the expression of Smad3 at the mRNA level (Smad3) | inhibition at 50 µM (Smad3) [%] | inhibition at 50 µM (COL3A1) [%] | inhibition at 50 µM (IL-1β) [%] | inhibition of the expression of collagen I and collagen III at the mRNA level [1] | inhibition at 50 µM (COL1A2) [%] |
| --- | --- | --- | --- | --- | --- | --- | --- | --- | --- |
| CC(C)(C)OC(=O)N[C@@H](CC(=O)O)C(=O)O [Compound 1] | 1 to 10 | 1 to 10 | 1 to 10 | could inhibit | 10 to 25 |  |  |  |  |
| COC(=O)C[C@H](NC(=O)OC(C)(C)C)C(=O)O [Compound 8] | 10 to 25 |  |  |  | 1 to 10 | 10 to 25 | 1 to 10 | could inhibit |  |
| COC(=O)C[C@H](NC(=O)OCC1c2ccccc2-c2ccccc21)C(=O)O [Compound 9] |  |  | 1 to 10 | could inhibit | 10 to 25 |  | 25 to 50 |  |  |
| C=CCOC(=O)C[C@H](NC(=O)OCC1c2ccccc2-c2ccccc21)C(=O)O [Compound 11] |  | 1 to 10 |  |  | 1 to 10 |  | 25 to 50 |  |  |
| CC(C)(C)OC(=O)[C@@H](N)CC(=O)O [Compound 14] | 10 to 25 | 1 to 10 |  |  |  | 1 to 10 |  | could inhibit |  |
| COC(=O)[C@@H](N)CC(=O)OC(C)(C)C [Compound 15] | 10 to 25 | 1 to 10 | 1 to 10 | could inhibit | 10 to 25 | 10 to 25 |  | could inhibit |  |
| CC(C)(C)OC(=O)C[C@H](NC(=O)OCc1ccccc1)C(=O)O [Compound 16] | 1 to 10 | 1 to 10 |  |  |  |  |  |  |  |
| CC(C)(C)OC(=O)C[C@H](NC(=O)OC(C)(C)C)C(=O)O [Compound 17] | 1 to 10 | 10 to 25 | 1 to 10 |  | 1 to 10 |  |  |  |  |
| CC(C)(C)OC(=O)C[C@H](NC(=O)OCC1c2ccccc2-c2ccccc21)C(=O)O [Compound 18] | 10 to 25 |  |  |  |  | 1 to 10 |  | could inhibit | 1 to 10 |
| CN(C(=O)OCC1c2ccccc2-c2ccccc21)[C@@H](CC(=O)OC(C)(C)C)C(=O)O [Compound 19] | 10 to 25 |  |  |  |  | 10 to 25 |  | could inhibit | 10 to 25 |
